Source: patent US11278682B2, “Device and method for aerosolized delivery of substance to a natural orifice of the body” (SIPNOSE LTD., priority 2014, dated 2022)
“Also recorded” adds a separate entry of the source.

Experiments:
[1] = system: Pentylenetetrazol (PTZ)-induced epileptic seizures in rats; test: Pentylenetetrazol (PTZ)-induced epileptic seizures, Racine grading, Midazolam IV vs SipNose; type: in vivo, rat
Method: In this example, epileptic seizures were induced in rats by administration of 47.5-50 mg/kg of Pentylenetetrazol (PTZ) for 5 min before the start of treatment with Midazolam. The Midazolam was administered either via IV or using a SipNose device, via the nasal passages. There were two dosing levels, 0.6 mg/kg (FIG. 78) and 6 mg/kg (FIG. 79).
In all cases, the Racine grading standard was used to determine the severity of the seizures. PZT was at t=−5 min, the start of treatment was at time t=0.
Treatment consisted of saline (control, diamonds), Midazolam administered by IV (triangles) or Midazolam administered nasally by a SipNose device (squares).

Sprague-Dawley (SD) rats = test: Safety and toxicity of intranasal Midazolam via SipNose device; type: in vivo, rat
Method: Safety and possible adverse effects (toxicity) were assessed the safety and toxicity including adverse effects of Midazolam following intranasal administration via SipNose dedicated device to Sprague-Dawley (SD) rats.
A total of 78 SD rats (39 female and 39 male) were utilized. The animals were divided into four groups of 3 or 12 female rats and 3 or 12 male rats. At each of the times 6 hrs, 24 hrs, 7 days, and 14 days, three males and three females were sacrificed.
The test material was a commercially available injectable Midazolam.
The day of dosing was Day 1 and termination days were Day 1 (6 hrs), Day 2 (24 hrs), Day 8 and Day 15.
Each test material or vehicle dose was administrated to three female and three male rats at each of the above times. The administration was performed intranasally (IN) via a SipNose device. The dose volume was 25-125 μl per naris (50-250 μl total per rat). Dosing was performed in an escalating fashion, each increase in dose depending on the outcome of the previous dose. The time between increasing doses was approximately half an hour.
Dosing was performed in a staggered fashion, each increase in dose pending on the outcome of the previous dose. The lag time between the increasing doses was approximately half an hour. The maximum dose was five times the clinical dose in order to determine a maximum tolerated dose.
The test material and vehicle were administered IN once via a SipNose device at a dose volume of 50-250 μl to non-fasting animals.
Animals were observed individually at least once during the first 30 minutes alter dosing and daily thereafter, for a total of 1, 7, or 14 days (according to time of sacrifice for histological observation). All observations were systematically recorded and individual records were maintained for each animal.
Body weight was monitored one day after the animals' arrival, prior to administration of the test material and twice a week thereafter (days 4, 8, 10 and 15) for a total of 5 times.
Clinical signs were observed daily, at least once during the first 30 min after dosing, periodically during the first 24 h, with special attention during the first 4 h, and once daily thereafter.
Animals were sacrificed by carbon dioxide asphyxiation and gross pathology was performed examining the major tissue and organ systems. All animals were subjected to gross necropsy.
The tissue samples from groups 1, 2, 3 and 4 (M+F) were embedded, sectioned and mounted on slides. The tissue sections were stained with Hematoxylin & Eosin (H&E).
Three cross sections of the skull and brain were taken: (1) in the nose from rostral area, (2) behind the incisor teeth and (3) in the caudal area including the olfactory epithelium labyrinth (FIG. 85). The brain was dissected in the olfactory regions, hippocampus, cerebellum and brain stem. The lungs were evaluated in both right and left lobes. The inflammatory status in the tissue samples were evaluated using the following parameters.
• Grade 0: No inflammation • Grade 1: Mild (few inflammatory cells, 10-20 per ×40 high-power field) • Grade 2: moderate (more inflammatory cells, 20-50 per ×40 high-power field), • Grade 3: severe (many inflammatory cells, more than 50 per ×40 high-power field).

[2] = system: Pentylenetetrazol (PTZ)-induced epileptic seizures in rats; test: Brain concentration of Midazolam vs convulsion score in PTZ-induced seizures; type: in vivo, rat; settings: 60 minutes after administration
Method: Epileptic seizures were induced in rats by administration of Pentylenetetrazol (PTZ) and the severity of the seizures was measured 60 minutes after administration of Mizadolam. Doses of Mizadolam varied from zero to 6 mg/kg with SipNose nasal delivery device and with an I/V administration. Brain concentrations of Midazolam were measured and a correlation between brain concentration and convulsions score is shown in FIG. 81. Brain concentrations varied from zero to 130 ng/gr brain tissue. Black squares represent the I/V administrated animals and black dots represent the SipNose administrated animals.

patients = test: Midazolam pre-medication sedation (BIS EEG monitoring), 3 mg, SipNose vs commercial nasal pump; type: in vivo, human; settings: for failures in inducing anesthesia: both comparisons pooled (3 mg and 1.4 mg)
Method: A comparison was made of the efficacy of delivery of the anesthetic Midazolam, when used for pre-medication, between an embodiment of the SipNose device of the present invention and a prior-art device, the commercial nasal pump based on positive displacement (as the pump used for Alrin™ delivery) and the MAD Nasal from Wolfe Tory.
Comparison with nasal pump (using 5 mg/ml solution): For a pre-medication procedure with commercial nasal pump (positive displacement pump), in order to achieve the desired dose of 3 mg Midazolam, the delivery device was inserted into a nostril and an aliquot of Midazolam is delivered. The delivery device is then inserted into the opposite nostril and a second aliquot of Midazolam is delivered. This is repeated twice more with a 30 s intervals between each cycle, for a total of six aliquots of Midazolam, three in each nostril. As opposed to that, for a SipNose device delivery, a single dose of 0.6 ml was delivered to one nostril.
In order to determine the efficacy of anesthetization a BIS EEG monitoring was used, where the BIS values for brain activity are calculated from the EEG activity. Awake, unsedated individuals typically have BIS values ≥97. Mildly sedated individuals typically have BIS values in the 80's, moderately sedated individuals typically have BIS values in the 70's, while fully sedated individuals typically have BIS values below about 70; BIS values between about 45 and about 60 are commonly used for general anesthesia during the maintenance phase of an operation.
Two comparisons were made between the commercial device and the present, SipNose, device. In the first, 3 mg of Midazolam was administered and the commercial device was a commercial nasal pump (positive displacement), in the second, 1.4 mg of Midazolam was administered and the commercial device was a MAD applicator.

[3] = commercial nasal pump, 3 mg Midazolam

Cc1ncc2n1-c1ccc(Cl)cc1C(c1ccccc1F)=NC2 [Midazolam]
Racine seizure severity ([1]; 0.6 mg/kg Midazolam nasally by SipNose, about t=10 min to t=60 min): zero, no seizures were seen
Racine seizure severity ([1]; 6 mg/kg Midazolam IV): < 0.5
Racine seizure severity ([1]; 6 mg/kg Midazolam nasally by SipNose): < 0.5
death of neurons in the brain (Sprague-Dawley (SD) rats; SD rats, Midazolam treated groups): No death of neurons was detected
adverse effects or histopathological findings in examined tissues (Sprague-Dawley (SD) rats; SD rats, both tested doses (clinical dose and five times clinical dose)): no adverse effects or histopathological findings; also recorded: no pathological abnormalities were found
very mild inflammation in most caudal cross section of the nose (Sprague-Dawley (SD) rats; SD rats, seen in saline and Midazolam groups, 12 out of 42 animals): most probably not drug-related
clinical signs (Sprague-Dawley (SD) rats; SD rats, single intranasal dose via SipNose, up to 14 days): No abnormal clinical signs were detected
weight gain vs control group (Sprague-Dawley (SD) rats; female rats, five times the clinical dose, days 10 and 15): statistically significant greater weight gain
body weight increase vs control group (Sprague-Dawley (SD) rats; male rats, clinical dose of Midazolam, at several times): statistically significant greater increase in weight
Midazolam brain concentration at which Racine severity reaches zero ([2]; IV administration): about 130 ng/gm
Midazolam brain concentration up to which Racine severity remained at about 1 ([2]; IV administration): about 25 ng/gm
Midazolam brain concentration needed to completely prevent seizures (score=0) ([2]; SipNose administration): ~11 ng/gm
Adverse events (patients; SipNose device, 3 mg Midazolam): 0
Level of minimum BIS (patients; SipNose device, 3 mg Midazolam): 74.5±9
Mean onset time (patients; SipNose device, 3 mg Midazolam): 5.9 ± 4.6 min
level of Maximum BIS (patients; SipNose device, 3 mg Midazolam): 97
sleep score (1 not sleepy, 2 sleepy or calm, 3 sleeping) (patients; SipNose device, 3 mg Midazolam): 3
Number of Positive Sedations (patients; SipNose device, 3 mg Midazolam, 8 patients): 8
failures in inducing anesthesia (patients; SipNose device): no failures in 10 patients
sleep score (1 not sleepy, 2 sleepy or calm, 3 sleeping) (patients; commercial device (nasal pump), 3 mg Midazolam): less than 2
failures in inducing anesthesia (patients; commercial devices): 2 failures and one partial failure in 6 patients
Adverse events (patients; [3]): 0
Level of minimum BIS (patients; [3]): 87.5±5.3
Mean onset time (patients; [3]): 6.7 ± 4.6 min
Minimum BIS excluding failure (patients; [3]): 85
level of Maximum BIS (patients; [3]): 97
Number of Positive Sedations (patients; commercial nasal pump, 3 mg Midazolam, 4 patients): 3
